For two compounds, Km results are on record in patent US5173416A, “L-carnitine dehydrogenase from alcalgenes” (Toyo Jozo Kabushiki Kaisha, priority 1989, dated 1992).

This assay relates to L-carnitine dehydrogenase from Alcaligenes sp. No. 981 (FERM BP-2570). The assay can be described thus: Km determination of L-carnitine dehydrogenase (diaphorase/NBT coupled reaction mixture). Format: biochemical. On the procedure:
Km-value for NAD^+ is measured in various concentrations of NAD^+ in a reaction mixture of:
100 mM Tris-HCl buffer (pH 9.0)
5 U diaphorase (Toyo Jozo Co.)
0.025% NBT (Wako Pure Chem. Co.)
1% Tween 80 (Wako Pure Chem. Co.) and
In the reaction mixture, 50 mM L-carnitine is replaced by 1 mM NAD^+, and the concentration of L-carnitine is varied to measure the Km-value of L-carnitine.
The results are as shown above.

Read-outs that look alike come from different tables or passages of the source.

Broadly, the Km is the substrate concentration at which the rate is half of its maximum.

As to `C[N+](C)(C)C[C@H](O)CC(=O)[O-]` [L-carnitine], the Km (100 mM Tris-HCl buffer pH 9.0, 1 mM NAD+, L-carnitine concentration varied, read-out: Km-value (L-carnitine)) stood at 9.3 mM.
As for `NC(=O)c1ccc[n+]([C@@H]2O[C@H](COP(=O)([O-])OP(=O)(O)OC[C@H]3O[C@@H](n4cnc5c(N)ncnc54)[C@H](O)[C@@H]3O)[C@@H](O)[C@H]2O)c1` [NAD^+], the Michaelis constant (Km) (100 mM Tris-HCl buffer pH 9.0, 50 mM L-carnitine, NAD+ concentration varied, read-out: Km-value (NAD+)) stood at 0.141 mM.
